Laboratory results from article PMC8292346, “Dysfunction of the key ferroptosis-surveilling systems hypersensitizes mice to tubular necrosis during acute kidney injury” (Nature Communications, 2021).
Values joined by “and” are separate entries in the source; they are usually repeats but may differ in a detail not shown here. Equal entries are not always repeated. Where two headings read alike, the source gives them in different places.

Assay: Pharmacokinetic analysis of Nec-1f in mice (tissue PK)
Type: in vivo, C57BL/6 mice
Details: for concentration at 120 min: sample collection 120 min; for concentration at 5 min: sample collection 5 min; for concentration at 15 min: sample collection 15 min; for concentration at 60 min: sample collection 60 min
[1] = male, C57BL/6, mouse, liver, intraperitoneal, liver, individual mice, read-out: concentration in liver
[2] = male, C57BL/6, mouse, lung, intraperitoneal, lung, individual mice, read-out: concentration in lung
[3] = male, C57BL/6, mouse, pancreas, intraperitoneal, pancreas, individual mice, read-out: concentration in pancreas
[4] = male, C57BL/6, mouse, plasma, intraperitoneal, 2 mg/ml, plasma, individual mice, read-out: concentration in plasma
[5] = male, C57BL/6, mouse, whole blood, intraperitoneal, 2 mg/ml, blood, individual mice, read-out: concentration in blood

## CN1C(=O)C(Cc2c[nH]c3c(Cl)cccc23)NC1=S (centres unmarked) [Nec-1f]
male, C57BL/6, mouse, kidney, intraperitoneal, 2 mg/kg, kidney, sample collection 360 min, individual mice, read-out: concentration in kidney
  concentration at 360 min: 0 ng/mL
male, C57BL/6, mouse, kidney, intraperitoneal, 2 mg/kg, kidney, sample collection 480 min, individual mice, read-out: concentration in kidney
  concentration at 480 min: 0 ng/mL
male, C57BL/6, mouse, kidney, intraperitoneal, 2 mg/kg, kidney, sample collection 1440 min, individual mice, read-out: concentration in kidney
  concentration at 1440 min: 0 ng/mL
male, C57BL/6, mouse, kidney, intraperitoneal, 2 mg/ml, kidney, sample collection 0 min, individual mice, read-out: concentration in kidney
  concentration at 0 min: 0 ng/mL
male, C57BL/6, mouse, kidney, intraperitoneal, 2 mg/ml, kidney, individual mice, read-out: concentration in kidney
  concentration at 120 min: 0 ng/mL
male, C57BL/6, mouse, kidney, intraperitoneal, 2 mg/ml, sample collection 30 min, individual mice
  concentration at 30 min: 51 ng/mL
male, C57BL/6, mouse, kidney, ip, mice, single i.p. injection 2 mg/kg
  half-life: 3.52 h
male, C57BL/6, mouse, liver, intraperitoneal, 2 mg/kg, liver, sample collection 240 min, individual mice, read-out: concentration in liver
  concentration at 240 min: 0 ng/mL
male, C57BL/6, mouse, liver, intraperitoneal, 2 mg/kg, liver, sample collection 360 min, individual mice, read-out: concentration in liver
  concentration at 360 min: 0 ng/mL
male, C57BL/6, mouse, liver, intraperitoneal, 2 mg/kg, liver, sample collection 480 min, individual mice, read-out: concentration in liver
  concentration at 480 min: 0 ng/mL
male, C57BL/6, mouse, liver, intraperitoneal, 2 mg/kg, liver, sample collection 1440 min, individual mice, read-out: concentration in liver
  concentration at 1440 min: 0 ng/mL
male, C57BL/6, mouse, liver, intraperitoneal, liver, sample collection 0 min, individual mice, read-out: concentration in liver
  concentration at 0 min: 0 ng/mL
[1]
  concentration at 5 min: 202 ng/mL
  concentration at 15 min: 334 ng/mL
  concentration at 120 min: 0 ng/mL
male, C57BL/6, mouse, lung, intraperitoneal, 2 mg/kg, lung, sample collection 240 min, individual mice, read-out: concentration in lung
  concentration at 240 min: 0 ng/mL
male, C57BL/6, mouse, lung, intraperitoneal, 2 mg/kg, lung, sample collection 360 min, individual mice, read-out: concentration in lung
  concentration at 360 min: 0 ng/mL
male, C57BL/6, mouse, lung, intraperitoneal, 2 mg/kg, lung, sample collection 480 min, individual mice, read-out: concentration in lung
  concentration at 480 min: 0 ng/mL
male, C57BL/6, mouse, lung, intraperitoneal, lung, sample collection 0 min, individual mice, read-out: concentration in lung
  concentration at 0 min: 0 ng/mL
[2]
  concentration at 5 min: 573 ng/mL
  concentration at 60 min: 321 ng/mL
  concentration at 120 min: 50 ng/mL
male, C57BL/6, mouse, lung, intraperitoneal, lung, sample collection 1440 min, individual mice, read-out: concentration in lung
  concentration at 1440 min: 0 ng/mL
male, C57BL/6, mouse, pancreas, intraperitoneal, pancreas, sample collection 0 min, individual mice, read-out: concentration in pancreas
  concentration at 0 min: 0 ng/mL
[3]
  concentration at 5 min: 8950 ng/mL
  concentration at 15 min: 35200 ng/mL
  concentration at 120 min: 490 ng/mL
male, C57BL/6, mouse, pancreas, intraperitoneal, pancreas, sample collection 1440 min, individual mice, read-out: concentration in pancreas
  concentration at 1440 min: 0 ng/mL
male, C57BL/6, mouse, plasma, intraperitoneal, 2 mg/kg, plasma, sample collection 240 min, individual mice, read-out: concentration in plasma
  concentration at 240 min: 0 ng/mL
male, C57BL/6, mouse, plasma, intraperitoneal, 2 mg/kg, plasma, sample collection 360 min, individual mice, read-out: concentration in plasma
  concentration at 360 min: 0 ng/mL
male, C57BL/6, mouse, plasma, intraperitoneal, 2 mg/kg, plasma, sample collection 480 min, individual mice, read-out: concentration in plasma
  concentration at 480 min: 0 ng/mL
male, C57BL/6, mouse, plasma, intraperitoneal, 2 mg/kg, plasma, sample collection 1440 min, individual mice, read-out: concentration in plasma
  concentration at 1440 min: 0 ng/mL
male, C57BL/6, mouse, plasma, intraperitoneal, 2 mg/ml, plasma, sample collection 0 min, individual mice, read-out: concentration in plasma
  concentration at 0 min: 0 ng/mL
[4]
  concentration at 5 min: 0 ng/mL
  concentration at 60 min: 19 ng/mL
  concentration at 120 min: 0 ng/mL
male, C57BL/6, mouse, whole blood, intraperitoneal, 2 mg/kg, blood, sample collection 240 min, individual mice, read-out: concentration in blood
  concentration at 240 min: 0 ng/mL
male, C57BL/6, mouse, whole blood, intraperitoneal, 2 mg/kg, blood, sample collection 360 min, individual mice, read-out: concentration in blood
  concentration at 360 min: 0 ng/mL
male, C57BL/6, mouse, whole blood, intraperitoneal, 2 mg/kg, blood, sample collection 480 min, individual mice, read-out: concentration in blood
  concentration at 480 min: 0 ng/mL
male, C57BL/6, mouse, whole blood, intraperitoneal, 2 mg/ml, blood, sample collection 0 min, individual mice, read-out: concentration in blood
  concentration at 0 min: 0 ng/mL
[5]
  concentration at 5 min: 0 ng/mL
  concentration at 60 min: 0 ng/mL
  concentration at 120 min: 0 ng/mL
male, C57BL/6, mouse, whole blood, intraperitoneal, 2 mg/ml, blood, sample collection 1440 min, individual mice, read-out: concentration in blood
  concentration at 1440 min: 0 ng/mL
pancreas, sample collection 240 min, individual mice
  concentration in pancreas: 476 ng/mL and 7372 ng/mL and 2018 ng/mL
pancreas, sample collection 360 min, individual mice
  concentration in pancreas: 0 ng/mL and 1720 ng/mL and 911 ng/mL
pancreas, sample collection 480 min, individual mice
  concentration in pancreas: 0 ng/mL and 176 ng/mL and 625 ng/mL
pancreas, sample collection 1440 min, individual mice
  concentration in pancreas: 0 ng/mL
plasma, sample collection 0 min, individual mice
  concentration in plasma: 0 ng/mL
plasma, sample collection 240 min, individual mice
  concentration in plasma: 0 ng/mL
plasma, sample collection 360 min, individual mice
  concentration in plasma: 0 ng/mL
plasma, sample collection 480 min, individual mice
  concentration in plasma: 0 ng/mL
plasma, sample collection 1440 min, individual mice
  concentration in plasma: 0 ng/mL
